{"source": "patent US20240366649A1", "about": "“4-ETHYNYL-3-HYDROXY-TETRAHYDROFURANYL-ADENINE PHOSPHORAMIDATES AND RELATED COMPOUNDS AND THEIR USE IN TREATING MEDICAL CONDITIONS” (ROME THERAPEUTICS, INC., priority 2021, published 2024)", "key": {"[1]": {"tested_on": "IFN-β production in PBMCs", "assay": "Decitabine-stimulated human PBMC assay", "assay_type": "cell-based", "settings": "anti-CD3/anti-CD28, 10 μM decitabine, 5 days", "procedure": "EasySep buffer (32 mL, Stem Cell, cat. #20144) was used to dilute 8 mL of LRSC buffy coat (from fresh Leukopak) with gentle mixing. The diluted buffy coat (20 mL) was transferred into each of two SepMate 50 tubes, and the tubes were filled with 15 mL of Lyphoprep (Stem Cell, ct. #07851) density gradient. The SepMate tubes were then centrifuged at 1200G for 10 minutes at room temperature with the brake on. The top layer of supernatant was collected in SepMate tubes by quickly pouring it into a new 50 mL conical tube. The PBMCs were washed with EasySep buffer ×2 by centrifuging at 300G for 5 minutes. The cells were resuspended in 30 mL of EasySep and centrifuged at 100G for 5 minutes with the brake off, and the platelets were removed. The cells were then resuspended in 6 mL of 1×RBC lysis buffer (InvitroGen) and incubated at 37° C. for 5 minutes. Then, 25 mL of EasySep buffer was mixed into the tube and it was centrifuged at 300G for 5 minutes. The cells were resuspended in 10 mL of EasySep buffer and the cells were then counted with Cellometer (AO/PI). The PBMCs were resuspended in RPMI1640 (ThermoFisher)+10% FBS (HyClone)+p/s at 3×10^6/mL. The PBMCs (100 μL, 300 k PBMCs) were then seeded in a 96-well flat bottom microplate (Corning) that had been precoated with 100 μL of anti-CD3 antibody (10 μg/mL in PBS, Biolegend) or PBS at 4° C., one day before the assay was commenced. […]"}, "[2]": {"tested_on": "Ovarian cancer OVCAR-8 cells", "assay": "Cancer cell viability assay with 3D cell colonies (CellTiter-Glo), OVCAR-8", "assay_type": "cell-based", "settings": "OVCAR-8, 3D methylcellulose colonies, 7 days", "procedure": "(§1) Cancer cell lines were cultured in the following media: • Ovarian cancer OVCAR-8 cells—RPMI media containing 10% FBS • Ovarian cancer SK-OV-3 cells—McCoy's 5a media containing 10% FBS • Ovarian cancer SW756 cells—L-15 (100% air)+10% FBS • Esophageal cancer TE-1 cells—RPMI-1640+10% FBS • Esophageal cancer KYSE-410 cells—RPMI-1640+5˜10% FBS • Esophageal cancer KYSE-70 cells—RPMI-1640+10% h.i.FBS. • Pharyngeal cancer FaDu cells—MEM+0.01 mM NEAA+10% FBS\n(§2) Cell colony formation was tested using a 3D methylcellulose-based CellTiter-Glo (CTG) viability assay (Cat. No: G7573, Promega). Briefly, cells were inoculated into 96-well plates (at 1,500 cells per well) into a solution of 0.65% methylcellulose in growth media and incubated overnight at 37° C. in 5% CO2. The next day, serially diluted test compound (islatravir, 4′-ethynyl-2-fluoro-2′-deoxyadenosine) or positive control (cisplatin, Cat. No. 6J015A89, Qilu Pharma) were added at the indicated concentrations, and the cells were incubated for 7 days. On day seven, 100 μL of CTG reagent was added, and the plates were incubated at room temperature for 20 min. Luminescence was read on an Envision Multi Label Reader according to manufacturer's instructions. IC50 values were determined using the following calculation: […]"}, "[3]": {"tested_on": "Esophageal cancer KYSE-70 cells", "assay": "Cancer cell viability assay with 3D cell colonies (CellTiter-Glo), KYSE-70", "assay_type": "cell-based", "settings": "KYSE-70, 3D methylcellulose colonies, 7 days", "procedure": "as §1, §2"}, "[4]": {"tested_on": "Esophageal cancer TE-1 cells", "assay": "Cancer cell viability assay with 3D cell colonies (CellTiter-Glo), TE-1", "assay_type": "cell-based", "settings": "TE-1, 3D methylcellulose colonies, 7 days", "procedure": "as §1, §2"}, "[5]": {"tested_on": "Esophageal cancer KYSE-410 cells", "assay": "Cancer cell viability assay with 3D cell colonies (CellTiter-Glo), KYSE-410", "assay_type": "cell-based", "settings": "KYSE-410, 3D methylcellulose colonies, 7 days", "procedure": "as §1, §2"}, "[6]": {"tested_on": "Ovarian cancer SW756 cells", "assay": "Cancer cell viability assay with 3D cell colonies (CellTiter-Glo), SW756", "assay_type": "cell-based", "settings": "SW756, 3D methylcellulose colonies, 7 days", "procedure": "as §1, §2"}, "[7]": {"tested_on": "Ovarian cancer SK-OV-3 cells", "assay": "Cancer cell viability assay with 3D cell colonies (CellTiter-Glo), SK-OV-3", "assay_type": "cell-based", "settings": "SK-OV-3, 3D methylcellulose colonies, 7 days", "procedure": "as §1, §2"}, "[8]": {"tested_on": "Pharyngeal cancer FaDu cells", "assay": "Cancer cell viability assay with 3D cell colonies (CellTiter-Glo), FaDu", "assay_type": "cell-based", "settings": "3D methylcellulose colonies, 7 days", "procedure": "as §1, §2"}, "[9]": {"target": "LINE1 reverse transcriptase (Homo sapiens, UniProt O00370)", "assay": "Homogeneous time-resolved fluorescence (HTRF) LINE1 RT assay", "assay_type": "biochemical", "design": "recombinant MBP-tagged LINE1 protein (238-1061); MBP; made in house", "settings": "recombinant MBP-tagged LINE1 protein (238-1061), read-out: IC50 for inhibiting LINE1 reverse transcriptase", "procedure": "The LINE1 reverse transcriptase homogeneous time-resolved fluorescence (HTRF) assay was performed with recombinant MBP-tagged LINE1 protein (238-1061) (generated and purified according to procedures in Dai L. et al. BMC Biochemistry 2011; 12:18) in a 384-well format. Test compound was serially diluted in DMSO and further diluted in the assay buffer (50 mM Tris-HCl, 50 mM KCl, 10 mM MgCl2, 10 mM DTT, pH 8.1) to achieve a final DMSO concentration of 1%. The serially diluted compound was mixed with 64 ng/well of LINE1 enzyme, 5 nM of pre-annealed template/biotin-primer pair (synthesized at Generay Biotechnology), 10 nM of Fluorescein-12-dATP fluorescent probe (Perkin Elmer), and 1 μM dGTP/dCTP/dTTP (Thermo Fisher Scientific) in the assay buffer. The template/biotin-primer sequences were as follows:\n(§3) After incubating at 25° C. for 60 minutes, the detection reagent (20 mM EDTA with streptavidin-terbium cryptate, Cisbio Bioassay) in the PPI buffer (Cisbio Bioassay) was added, and the mixture was incubated at 25° C. for 30 minutes. At the end of the incubation, fluorescence was read at ex/em=337/485 nm and ex/em=337/520 nm on an Envision 2104 plate reader (Perkin Elmer). The fluorescence ratio at 520/485 nm was used for the calculation. […] The IC50 was calculated by fitting the compound dose inhibition curve with a 4-parameter non-linear regression equation."}, "[10]": {"target": "T1, HERV-K reverse transcriptase (Homo sapiens, UniProt V9H0F6)", "T1 construct": "fused on or other part: C-terminal 8His tag", "T1 sequence (V9H0F6 entry or part of it)": "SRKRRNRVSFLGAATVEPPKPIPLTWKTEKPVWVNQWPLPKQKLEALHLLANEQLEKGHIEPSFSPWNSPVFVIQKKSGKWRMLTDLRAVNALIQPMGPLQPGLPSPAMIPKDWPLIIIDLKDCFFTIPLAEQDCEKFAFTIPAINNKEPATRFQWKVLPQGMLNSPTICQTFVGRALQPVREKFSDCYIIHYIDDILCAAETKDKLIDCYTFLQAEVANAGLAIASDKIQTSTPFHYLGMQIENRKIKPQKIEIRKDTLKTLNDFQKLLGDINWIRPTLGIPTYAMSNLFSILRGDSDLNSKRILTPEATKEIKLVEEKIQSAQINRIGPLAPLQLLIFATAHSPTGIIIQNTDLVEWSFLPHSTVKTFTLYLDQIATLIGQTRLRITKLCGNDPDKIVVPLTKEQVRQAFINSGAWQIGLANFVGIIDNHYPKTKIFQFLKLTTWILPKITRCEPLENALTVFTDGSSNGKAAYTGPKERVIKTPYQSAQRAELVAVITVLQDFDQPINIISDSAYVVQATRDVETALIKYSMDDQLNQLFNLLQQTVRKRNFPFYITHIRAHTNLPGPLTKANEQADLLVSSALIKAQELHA", "assay": "Homogeneous time-resolved fluorescence (HTRF) HERV-K RT assay", "assay_type": "biochemical", "settings": "HERV-K reverse transcriptase (2-596)-8His protein, read-out: IC50 for inhibiting HERV-K reverse transcriptase", "procedure": "The HERV-K reverse transcriptase homogeneous time-resolved fluorescence (HTRF) assay was performed in a 384-well format with HERV-K reverse transcriptase (2-596)-8His protein. Baculoviruses were created using Bac-to-Bac technology (Invitrogen). pFastBac donor plasmids containing HERV-K reverse transcriptase sequence (NCBI GenBank number AAC63291.1, J. Virology (1999) Vol. 73, No. 3, pp. 2365-2375) were transformed into DH10 Bac cells following the manufacturer's instructions. Recombinant bacmids were then isolated clonally and transfected into SF9 cells with lipofectin. HERV-K reverse transcriptase was expressed in the SF9 insect cells and then purified using immobilized metal affinity chromatography (IMAC) followed by size-exclusion chromatography (SEC). […]\nas §3, with “30” for “60”, “20” for “(20”, “cryptate (Cisbio” for “cryptate, Cisbio”, “60” for “30”"}}, "data": [{"molecule": "C#C[C@]1(CO)O[C@@H](n2cnc3c(N)nc(Cl)nc32)C[C@@H]1O", "note": "[4′-ethynyl-2-chloro-2′-deoxyadenosine]", "values": [{"measurement": "production of IFN-β", "setting": "[1]", "value": "activated production of IFN-β"}]}, {"molecule": "N.N.[Cl][Pt][Cl]", "note": "[Cisplatin, cisplatin]", "values": [{"measurement": "IC50", "setting": "[2]", "value": "≤ 10000", "unit": "nM"}, {"measurement": "IC50", "setting": "[3]", "value": "≤ 10000", "unit": "nM"}, {"measurement": "IC50", "setting": "[4]", "value": "≤ 10000", "unit": "nM"}, {"measurement": "IC50", "setting": "[5]", "value": "> 30000", "unit": "nM"}, {"measurement": "IC50", "setting": "[6]", "value": "≤ 10000", "unit": "nM"}, {"measurement": "IC50", "setting": "[7]", "value": "≤ 10000", "unit": "nM"}, {"measurement": "IC50", "setting": "[8]", "value": "≤ 10000", "unit": "nM"}]}, {"molecule": "C#C[C@]1(COP(=O)(O)OP(=O)(O)OP(=O)(O)O)O[C@@H](n2cnc3c(N)nc(F)nc32)C[C@@H]1O", "note": "[drawing 277]", "values": [{"measurement": "IC50", "setting": "[9]", "value": 23, "unit": "nM"}]}, {"molecule": "C#C[C@]1(COP(=O)(O)OP(=O)(O)OP(=O)(O)O)O[C@@H](n2cnc3c(N)nc(Cl)nc32)C[C@@H]1O", "note": "[drawing 278]", "values": [{"measurement": "IC50", "setting": "[9]", "value": 20, "unit": "nM"}]}, {"molecule": "C#C[C@]1(COP(=O)(O)OP(=O)(O)OP(=O)(O)O)O[C@@H](n2cnc3c(N)nc(F)nc32)C[C@@H]1O", "note": "[drawing 279]", "values": [{"measurement": "IC50", "setting": "[10]", "value": 17.8, "unit": "nM"}]}, {"molecule": "C#C[C@]1(COP(=O)(O)OP(=O)(O)OP(=O)(O)O)O[C@@H](n2cnc3c(N)nc(Cl)nc32)C[C@@H]1O", "note": "[drawing 280]", "values": [{"measurement": "IC50", "setting": "[10]", "value": 310, "unit": "nM"}]}]}
